Test results reported in US20050271676A1, “Inducing cellular immune responses to human immunodeficiency virus-1 using peptide and nucleic acid compositions” (Epimmune Inc., priority 1993, published 2005).
No end group written: not given here.

Tests used:
[1] = biological target: HLA-B*5401 (Homo sapiens, UniProt P01889, A329T/C349S/D138N/D201E/E176V/E187T/E204Q/E69G/I76V/K202T/L119W/R155S/R180L/S121T/S35A/S48A/V127L/V306I/V36M/Y140L); assay: biochemical
[2] = biological target: HLA-B51 (B*5101) (Homo sapiens, UniProt P01889, A329T/A93T/A95T/C349S/D138N/D201E/D98Y/E187L/E204Q/E69T/G107R/I218V/K202T/L105A/L119W/N104I/Q94N/R106L/R155S/R180L/S101N/S121T/S35A/S48A/V306I/V36M/Y195H/Y91F); assay: purified HLA class I binding assay, B51 (B*5101)
[3] = biological target: HLA-B*3501 (Homo sapiens, UniProt P01889, A329T/A93T/A95T/C349S/D201E/D98Y/E176V/E187L/E204Q/E69T/I218V/K202T/L119I/Q94N/R155S/R180L/S121R/S35A/S48A/T118I/V127L/V306I/V36M/Y140S/Y91F); assay: purified HLA class I binding assay, B*3501
[4] = biological target: HLA-B*5301 (Homo sapiens, UniProt P01889, A329T/A93T/A95T/C349S/D201E/D98Y/E176V/E187L/E204Q/E69T/G107R/I218V/K202T/L105A/L119I/N104I/Q94N/R106L/R155S/R180L/S101N/S121R/S35A/S48A/T118I/V127L/V306I/V36M/Y140S/Y91F); assay: purified HLA class I binding assay, B*5301
[5] = biological target: T1, HLA-B*0702 (Homo sapiens, UniProt P01889); assay: purified HLA class I binding assay, B*0702
T1 construct: endogenous in cells; host or cells: GM3107

[6] = biological target: T2, HLA-DRB1*0401 (DR4w4) (Homo sapiens, UniProt P01903+P01911, A100K/A169T/F76Y/I96L/K127E/L162R/M171V/N62H/P40V/Q125Y/R42H/S133A/S149N/S66Y/V115G/V209L/W38E); assay: purified HLA class II binding assay, DRB1*0401 (DR4w4)
T2 construct: endogenous in cells; host or cells: Preiss

[7] = biological target: T3, HLA-DRB1*1201 (DR5w12) (Homo sapiens, UniProt P01903+P01911, A100R/A169T/D57E/D86V/F55L/H45Y/K41T/L162R/M171V/P40S/Q125H/Q178H/Q39Y/Q99D/R42G/S66L/T262R/V114A/V67L/W38E/Y59H/Y61H/Y89S); assay: purified HLA class II binding assay, DRB1*1201 (DR5w12)
T3 construct: endogenous in cells

[8] = biological target: T4, HLA-DRB1*1501 (DR2w2β1) (Homo sapiens, UniProt P01903+P01911); assay: purified HLA class II binding assay, DRB1*1501 (DR2w2β1)
T4 construct: expressed in transfected cells

[9] = biological target: HLA-DRB1*1302 (DR6w19) (Homo sapiens, UniProt P01903+P01911, A100E/A169T/K41T/L162R/M171V/P40S/Q125H/Q178H/Q39Y/Q99D/R42S/S66N/T262R/V115G/W38E/Y61H); assay: purified HLA class II binding assay, DRB1*1302 (DR6w19)
[10] = biological target: T5, HLA-DRB1*0701 (DR7) (Homo sapiens, UniProt P01903+P01911, A100R/A102G/A103Q/D57E/D86V/E43K/F76Y/K127E/L162R/M171V/P40G/Q125H/Q99D/R33Q/R42Y/R54Q/S133A/S66F/T210M/V115G/Y107V/Y59L/Y89S); assay: biochemical; assay type: binding
T5 construct: endogenous in cells; host or cells: Pitout

[11] = biological target: T6, HLA-DRB1*0802 (DR8w2) (Homo sapiens, UniProt P01903+P01911, A100R/A103L/A169T/F76Y/H45Y/I96F/K41T/L162R/M171V/P40S/Q125H/Q178H/Q39Y/Q99D/R218S/R42G/S66Y/V115G/W38E); assay: biochemical; assay type: binding
T6 construct: endogenous in cells

[12] = biological target: T7, HLA-DRB1*0301 (DR3) (Homo sapiens, UniProt P01903+P01911, A100K/A102G/A103R/A169T/F55Y/I96L/K41T/L162R/M171V/P40S/Q125H/Q178H/Q39Y/R42S/S66N/T106N/T262R/W38E/Y61H); assay: purified HLA class II binding assay, DRB1*0301 (DR3), pH 4.5
T7 construct: endogenous in cells; host or cells: MAT

[13] = biological target: T8, HLA-DRB1*0901 (DR9) (Homo sapiens, UniProt P01903+P01911, A100R/A103E/D57H/D86V/F55Y/F60I/F76Y/I96F/K127E/L162R/M171V/P40D/Q125H/Q99R/R33Q/R42F/S133A/S66N/T210M/V115G/W38K/Y107V/Y59G/Y89S); assay: biochemical; assay type: binding
T8 construct: endogenous in cells

[14] = biological target: T9, HLA-DRB1*1101 (DR5w11) (Homo sapiens, UniProt P01903+P01911, A100R/A169T/A87E/I96F/K41T/L162R/M171V/P40S/Q125H/Q178H/Q39Y/Q99D/R42S/S66Y/T262R/V115G/W38E); assay: biochemical; assay type: binding
T9 construct: endogenous in cells

[15] = biological target: HLA-DRB1*0405 (DR4w15) (Homo sapiens, UniProt P01903+P01911, A100R/A169T/D86S/F76Y/I96L/K127E/L162R/M171V/N62H/P40V/Q125Y/R42H/S133A/S149N/S66Y/V115G/V209L/W38E); assay: purified HLA class II binding assay, DRB1*0405 (DR4w15)
[16] = biological target: T10, HLA-DRB5*0101 (DR2w2β2) (Homo sapiens, UniProt P01903+Q30154); assay: biochemical; assay type: binding
T10 construct: expressed in transfected cells

[17] = system: HLA-A11/K^b transgenic mice; assay: CTL induction in HLA-A11/K^b transgenic mice after peptide immunization; assay type: in vivo; conditions: protocol as for HLA-A2 transgenic mice
[18] = system: PBMC from patients infected with HIV; assay: recall CTL responses, PBMC from HIV-infected patients, 51Cr release; assay type: cell-based, human
[19] = biological target: HLA-A*0203 (Homo sapiens, UniProt P04439, A173T/D140Y/D185E/D98H/E277Q/G131W/G231S/I119V/I121R/I166T/I218V/L180W/L300P/L318F/N151K/N90K/P208A/P217A/Q86G/Q94H/R138H/R169H/T345S); assay: purified HLA class I binding assay, A*0203
[20] = biological target: HLA-A*0206 (Homo sapiens, UniProt P04439, D140Y/D185E/D98H/E176V/E277Q/F33Y/G131W/G231S/I119V/I121R/I166T/I218V/L300P/L318F/N151K/N90K/P208A/P217A/Q86G/Q94H/R138H/R169H/T345S); assay: purified HLA class I binding assay, A*0206
[21] = system: A*0201/K^b transgenic mice; assay: CTL induction in A*0201/K^b transgenic mice after peptide immunization; assay type: in vivo
[22] = biological target: HLA-A*6802 (Homo sapiens, UniProt P04439, A269V/D140Y/D185E/E176V/E277Q/E87N/F33Y/G231S/I121R/I166T/I218V/L180W/L300P/L318F/N151K/P208A/P217A/Q86R/R138H/R169H/S129P/T345S/V36M); assay: purified HLA class I binding assay, A*6802
[23] = HIV DR super motif peptides, unit not given

T7 sequence (P01903 26-254 partner, other chains not shown): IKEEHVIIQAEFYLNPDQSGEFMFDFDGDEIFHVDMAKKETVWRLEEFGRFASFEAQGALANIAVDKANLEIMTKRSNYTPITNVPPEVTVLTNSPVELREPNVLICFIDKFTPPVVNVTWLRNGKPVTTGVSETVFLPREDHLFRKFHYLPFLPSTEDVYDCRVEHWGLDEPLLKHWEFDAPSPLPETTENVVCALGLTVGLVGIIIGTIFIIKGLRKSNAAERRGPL
T2 sequence (P01903 26-254 partner, other chains not shown): as above
T9 sequence (P01903 26-254, other chains not shown): as the sequence (P01903 26-254 partner, other chains not shown) above

Molecule `CC(C)C[C@H](NC(=O)[C@H](CO)NC(=O)[C@H](CCCNC(=N)N)NC(=O)[C@H](CC(C)C)NC(=O)[C@H](CO)NC(=O)[C@H](C)NC(=O)[C@H](CC(C)C)NC(=O)[C@@H]1CCCN1C(=O)[C@@H](N)Cc1ccc(O)cc1)C(=O)N[C@@H](Cc1ccccc1)C(=O)O` [15.0268] has an IC50 [1] of 714 nM and an IC50 [2] of 39.3 nM.

In the case of `CC(C)C[C@H](NC(=O)[C@@H]1CCCN1C(=O)[C@@H](NC(=O)[C@H](CCC(N)=O)NC(=O)[C@@H]1CCCN1C(=O)[C@H](CCCNC(=N)N)NC(=O)[C@@H](NC(=O)[C@@H]1CCCN1C(=O)[C@@H](N)Cc1ccccc1)C(C)C)C(C)C)C(=O)O` [1146.01], the IC50 [3] is reported as 43 nM, the IC50 [4] is reported as 482 nM and the IC50 [2] is reported as 11.6 nM. The IC50 [5] was 15.7 nM.

In the case of `CC[C@H](C)[C@H](NC(=O)CNC(=O)[C@H](CCCCN)NC(=O)[C@H](Cc1c[nH]cn1)NC(=O)[C@H](C)NC(=O)[C@@H]1CCCN1C(=O)[C@@H](NC(=O)[C@H](Cc1c[nH]c2ccccc12)NC(=O)[C@H](C)NC(=O)[C@H](CC(C)C)NC(=O)[C@H](Cc1ccc(O)cc1)NC(=O)[C@@H](NC(=O)[C@H](CCCCN)NC(=O)[C@@H](N)CCC(=O)O)C(C)C)C(C)C)C(=O)NCC(=O)O` [Peptide 27.0361], the IC50 [6] is reported as 9.3 nM, the IC50 [7] is reported as 6480 nM and the IC50 [8] is reported as 21 nM. The IC50 [9] was 3500 nM, the IC50 [10] was 18 nM and the IC50 [11] was 31 nM. For the same molecule, the IC50 [12] was 3230 nM, the IC50 [13] was 144 nM and the IC50 [14] was 37 nM. It also gave an IC50 [15] of 27 nM and an IC50 [16] of 4.9 nM.

In the case of `CC(C)[C@H](N)C(=O)N[C@H](C(=O)N[C@H](C(=O)N[C@@H](Cc1ccc(O)cc1)C(=O)N[C@@H](Cc1ccc(O)cc1)C(=O)NCC(=O)N[C@H](C(=O)N1CCC[C@H]1C(=O)N[C@H](C(=O)N[C@@H](Cc1c[nH]c2ccccc12)C(=O)N[C@@H](CCCCN)C(=O)O)C(C)C)C(C)C)C(C)C)[C@@H](C)O` [Peptide 1069.47], the “induction of CTL in HLA-A11 transgenic mice” value [17] is reported as “induced CTL responses in transgenic mice” and the “immunogenicity in HIV-infected patients” value ([18]; shown by collaborators) is reported as “immunogenic in HIV-infected patients”.

In the case of `CC[C@H](C)[C@H](NC(=O)CNC(=O)[C@H](Cc1c[nH]c2ccccc12)NC(=O)[C@@H](NC(=O)[C@@H](NC(=O)[C@H](CC(C)C)NC(=O)[C@H](CCC(N)=O)NC(=O)[C@H](CC(C)C)NC(=O)[C@@H](N)CC(C)C)[C@@H](C)O)C(C)C)C(=O)O` [Peptide 1261.02], the Immunogenicity patients ([18]; A2-supertype peptides, positive/tested HIV-infected patients) is reported as 2/8, the Immunogenicity patients ([18]; A2 Supermotif peptides, positive/tested patients) is reported as 2/8 and the IC50 [19] is reported as 43.5 nM. For the same molecule, the IC50 [20] was 24.7 nM, the Immunogenicity transgenic ([21]; A2 Supermotif peptides, positive/tested transgenic) was 1/6 and the Immunogenicity transgenic ([21]; A*0201/K^b transgenic mice, positive/tested) was 1/6. For the same molecule, the IC50 [22] was 645 nM.

With CPKVSFEPI [1296.02] the IC50 [1] was 100 nM, the IC50 [3] was 5140 nM and the IC50 [4] was 2450 nM. For the same molecule, the IC50 [5] was 100 nM.

With FPISPIETV [Peptide 1261.01] the IC50 [1] was 9.1 nM, the IC50 [3] was 1040 nM and the IC50 [5] was 3440 nM.

With HPVHAGPIA [1292.13] the IC50 [1] was 4.3 nM, the IC50 [3] was 11.6 nM and the IC50 [4] was 4430 nM. It also gave an IC50 [5] of 50 nM.

Work on IPYNPQSQGVV [1296.03] yielded an IC50 [1] of 66.7 nM, an IC50 [3] of 72000 nM and an IC50 [4] of 46500 nM. For the same molecule, the IC50 [2] was 120 nM.

In the case of QQHLLQLTVWGTKQL, the DR4w4 binding [6, 23] is reported as 0.0330, the DR5w12 binding [7, 23] is reported as 0.4900 and the “DR2 wβ1 binding” value [8, 23] is reported as 0.7500. It also gave a DR6w19 binding [9, 23] of 0.0180, a DR7 binding [10] of 0.3900 and a DR8w2 binding [11] of 0.0210. It also gave a DR3 binding [12, 23] of −0.0043, a DR9 binding [13] of 0.5100 and a DR5w11 binding [14] of 0.0036. The DR4w15 binding [15, 23] was 0.2700 and the DR2w2β2 binding [16] was 0.0580.

VPLQLPPL [29.0028] showed an IC50 [1] of 270 nM, an IC50 [3] of 6000 nM and an IC50 [4] of 46500 nM. For the same molecule, the IC50 [2] was 0.8 nM.
